Measured values from patent US6333340A, “Small molecule sulfonamides for vision and memory disorders” (Gpi Nil Holdings, Inc., priority 1998, dated 2001).
Several values for one entry are separate records, joined by “and”; a condition that tells them apart may be missing. Equal values may be shown once.

What was measured:
CNS = test: Sprouting within the CNS following partial deafferentation; format: in vivo
peripheral nerve = test: Peripheral nerve regeneration; details: in vivo
retinal ganglion cells [1] = test: Optic nerve transection, ganglion cell survival and axonal dying back (Example 16); format: in vivo, Sprague Dawley rats; details: 10 mg/kg/day s.c. for 28 days; 90 days after transection
Description: Transection of the mammalian optic nerve results in a brief period of abortive regeneration, but the majority of axotomized neurons die and the axons from many persisting ganglion cells die back beyond the optic nerve head.

[2] = Clearance (comments of Table V); format: in vitro ADME
aged mice = test: Morris watermaze, spatial learning and memory in aged mice; format: in vivo, male C57BL/6N-Nia mice; details: 10mg/kg daily
Description: The Morris watermaze is widely used for assessing spatial memory formation and retention in experimental animals. The test depends on the animal's ability to utilize spatial visual information in order to locate a submerged escape platform in a water tank. It is important that the tank itself be as devoid of specific visual features as possible--thus, it is always circular in shape, the sides are kept smooth and in uniform dull colors, and the water is rendered opaque with nontoxic watercolor pigment or powdered milk. This is to ensure that the animal navigates only by the use of more distant visual cues, or by the use of intra-maze cues specifically provided by the experimenter. The tank is filled to a level which forces the animal to swim actively. Normal mice and rats react […] to the swimming part of the test and will climb onto, and remain on, an escape platform from which they are removed to a heated resting cage. If the platform is visible (i.e. above the surface), animals placed in the tank will quickly learn to home in on the platform and climb out onto it. Testing with a visible platform will also ensure that the experimental animals are not blind and show sufficient motivation and stamina to perform the task, which can be important in experiments involving aged rodents. If the platform is invisible (i.e. submerged just below the surface), normal animals learn to use distant visual cues in the test room for orientation in the test tank, and, when placed in the tank, will quickly home in on the approximate location of the platform and circle in that area until the platform is found. The animals' path, speed, and swim time are tracked with a ceiling camera for later computerized analysis. Over the course of several successive trials, spatial learning can therefore be defined as a drop of distance swum, or time elapsed, from placement in the tank until escape onto the invisible platform. The test can be adapted to assess several aspects of spatial memory: a) acquisition of a cued task, where the animal's ability to link one visual cue directly with the escape platform depends on cortical function (i.e. a ball is suspended over the escape platform and the animal learns to follow this cue to find the platform); b) acquisition of a spatial task, where the animal's ability to learn the location of a submerged escape platform based on a combination of distant visual cues is dependent upon hippocampal function (i.e. the animal learns to triangulate its position in the tank by visually aligning the paper-tower dispenser with the door and ceiling lamp); c) retention of a successfully acquired spatial task, which is predominantly dependant on cortical function (i.e. the animal must remember the spatial location of the platform over several weeks); d) a hippocampus-dependant reversal task where the animals must reacquire a new spatial platform location (i.e. the platform is moved to a new location between swim trials and the animal must abandon its previous search strategy and acquire a new one). These different modifications of the Morris watermaze procedure can be applied in sequence to the same set of experimental animals and allow for a thorough characterization of their spatial memory performance and its decline with normal ageing. […]

retinal ganglion cells [3] = test: Optic nerve transection, retinal ganglion cell survival (Fluoro-gold counts); format: in vivo, Sprague Dawley rats; details: for RGC Counts: mean density + SEM in 400 μm sample gridfields
Description: (§1) All eyes and optic nerves stumps were removed.
^1 Mean density + SEM of Fluoro-gold labeled retinal ganglion cells
(RGC) in 400 μm […] sample gridfields.

[4] = system: central and peripheral nervous systems; details: Proc. Nat'l. Acad. Sci. USA 94, 2019-2024, 1997; cited from earlier work
neurite outgrowth = test: Neurite outgrowth in culture; format: cell-based
optic nerve myelin = test: Optic nerve transection, myelin basic protein immunohistochemistry of optic nerve stumps; format: in vivo, Sprague Dawley rats; details: for Proximal optic nerve myelin basic protein Density, % recovery: SEM
Description: as §1
^5 determined from 20X analysis of % areal coverage of optic nerve
^6 shrinkage determined by comparing cross sectional area to sham
control, myelin, leves determined by multiplying cross sectional area by […]

retinal ganglion cells [5] = test: Retinal ischemia, retinal ganglion cell degeneration; format: in vivo, adult rats; details: 10 mg/kg, s.c. 1 hour prior to ischemia and 10 mg/kg/day next four days; 28 days
Description: Retinal ganglion cells were retrogradely labeled in adult rats by bilateral injection of fluorogold in their lateral geniculate nuclei. Labeled ganglion cells in the normal rat retina appear as white profiles against the dark background (FIG. 1A). Complete retinal ischemia was produced by infusing normal saline solution into the retinal vitreous cavity of each eye until the intraocular pressure exceeded arterial blood pressure. 28 days after the ischemic episode extensive degeneration of retinal ganglion cell was evidenced by massive reduction in the density of fluorogold labeled cells (FIG. 1B).

[6] = system: retinal ganglion cell axons; test: Protection of retinal ganglion cell axons from degeneration following optic nerve transection, RT 97 axon density (Table V); format: in vivo
Description: Efficacy of representative compounds from different immunophilin ligand series in protecting retinal ganglion cell axons from degeneration following optic nerve transection is set forth in Table V.

[7] = retention after 3 weeks of dosing
[8] = 14 days treatment, 90 days after ONT
[9] = 28 days treatment, 90 days after ONT
[10] = distal stump, first 28 days after transection
[11] = proximal stump, first 28 days after transection

SMILES: CCC(C)(C)C(=O)C(=O)N1CCC[C@H]1C(=O)OCCCc1cccnc1 [GPI 1046]
- sprouting within the CNS (CNS): stimulate sprouting within the CNS following partial deafferentation
- peripheral nerve regeneration (peripheral nerve): enhance peripheral nerve regeneration
- perikaryal neuroprotection (retinal ganglion cells [1]): moderate degree of perikaryal neuroprotection
- preservation of axons of protected neurons in the proximal stump (retinal ganglion cells [1]): preserved the axons of virtually all protected neurons
- sparing of the ganglion cell population (retinal ganglion cells [1]): 25%
- Clearance [2]: 3.8 µL/min
- spatial memory performance of mice with age-related spatial memory impairments (aged mice; systemic): significantly enhanced spatial memory performance
- P, retention phase, young vs aged impaired GPI-1046 (aged mice; F1.69 =3.09): 0.08
- P, retention testing, aged impaired-vehicle vs aged impaired GPI-1046 (aged mice; F1.69 =8.11): 0.006
- retention phase, difference between young and aged impaired GPI-1046 groups (aged mice; [7]): no longer any statistically significant difference
- retention testing, aged impaired-vehicle compared with aged impaired GPI-1046 (aged mice; [7]): "aged impaired-vehicle" treated animals performed significantly poorer than "aged impaired - GPI-1046"
- % RGCs Rescued (retinal ganglion cells [3]; [8]): 5.3%
- Spared RGC population (retinal ganglion cells [3]; [8]): 20,275
- RGC Counts (retinal ganglion cells [3]; [8]): 49 ± 5.3
- density of retinal ganglion cells that survived (retinal ganglion cells [3]; 14 days treatment, 90 days after transection, in words): small but not significant increase
- % RGCs Rescued (protection of the vulnerable ganglion cell population) (retinal ganglion cells [3]; [9]): 12.6%
- Spared RGC population (retinal ganglion cells [3]; [9]): 28,096
- RGC Counts (retinal ganglion cells [3]; [9]): 67.9 ± 5.8
- effect on retinal ganglion cells following Optic Nerve Transection (retinal ganglion cells [3]; FIG. 10): neuroprotective effect
- protection of the vulnerable ganglion cell population, in words (retinal ganglion cells [3]; first 28 days after transection): moderate but significant protection
- repair and regeneration in the central and peripheral nervous systems [4]: promote repair and regeneration in the central and peripheral nervous systems
- neurite outgrowth in culture (neurite outgrowth): enhances neurite outgrowth in culture
- Distal optic nerve myelin basic protein Density, loss (optic nerve myelin; [8]): 47%
- Proximal optic nerve myelin basic protein Density, % recovery (optic nerve myelin; [8]): 1.6% and 1.6 ± 3.0%
- Distal optic nerve, shrinkage (optic nerve myelin; 14 days treatment, 90 days after ONT, cross sectional area vs sham control): 33%
- Distal optic nerve myelin preservation (myelin levels of normal) (optic nerve myelin; [9]): ~ 99% and 99%
- Distal optic nerve, less shrinkage (optic nerve myelin; [9]): 56%
- Proximal optic nerve myelin basic protein Density, % recovery (optic nerve myelin; [9]): 70% and 70 ± 6.3%
- density of degenerating myelin figures (optic nerve myelin; distal stump, first 14 days after transection): remained high
- density of myelin (optic nerve myelin; distal stump, first 14 days after transection, in words): slightly increase the density of myelin
- density of degenerating myelin figures (optic nerve myelin; [10]): decreased the density of degenerating myelin figures
- fascicular pattern of myelin labeling (optic nerve myelin; [10]): dramatic protection of the fascicular pattern of myelin labeling
- shrinkage of the distal stump (optic nerve myelin; first 14 days after transection, in words): did not protect against shrinkage of the distal stump
- cross sectional shrinkage of the distal stump (optic nerve myelin; first 28 days after transection, in words): prevented cross sectional shrinkage of the distal stump
- pattern of myelin degeneration (optic nerve myelin; proximal stump, first 14 days after transection): did not alter the pattern of myelin degeneration
- density of degenerating myelin figures (optic nerve myelin; [11]): decreased the density of degenerating myelin figures
- fascicular staining pattern for myelin basic protein (optic nerve myelin; [11]): dramatic preservation of the fascicular staining pattern for myelin basic protein
- protection of the vulnerable ganglion cell population (retinal ganglion cells [5]): noticeable protection of a large proportion of the vulnerable ganglion cell population
- RT 97 RCC axon density 11 days after ON transection (36 ON axon rescued) [6]: 60.5%
